Assay results reported in patent US20170291890A1 (Epizyme, Inc., priority 2014, published 2017).

Columns and labels:
[1] = target: T1, KDM4C (Homo sapiens, UniProt Q9H3R0); assay: KDM4C Assay (SAMDI mass spectrometry demethylase assay); format: biochemical; settings: N-terminal GST-tagged KDM4C 2-372; class symbols; read-out: 4C IC50
T1 construct: N-terminal GST-tagged KDM4C^2-372 was purchased from BPS Biosciences; GST (N); purchased BPS Biosciences
T1 sequence (Q9H3R0 2-372): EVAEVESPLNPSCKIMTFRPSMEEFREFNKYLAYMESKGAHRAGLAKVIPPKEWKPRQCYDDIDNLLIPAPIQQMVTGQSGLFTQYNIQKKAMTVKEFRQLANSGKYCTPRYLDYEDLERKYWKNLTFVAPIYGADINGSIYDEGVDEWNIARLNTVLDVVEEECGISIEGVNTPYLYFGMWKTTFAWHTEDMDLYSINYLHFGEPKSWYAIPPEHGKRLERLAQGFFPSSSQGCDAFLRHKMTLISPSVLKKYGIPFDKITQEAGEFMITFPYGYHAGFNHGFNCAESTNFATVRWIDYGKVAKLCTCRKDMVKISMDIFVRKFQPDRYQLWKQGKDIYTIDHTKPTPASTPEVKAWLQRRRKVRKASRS
Summary of the method: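 GST-tagged KDM4C 2-372 (5 nM) preincubated 30 min with compound, then H3K9me3 biotinylated peptide (500 nM) and 2-oxoglutarate (15 μM) added in HEPES pH 8.0 with ascorbate, Fe(II), TCEP; 150 min at 25 °C, formic-acid quench. Conversion by SAMDI mass spectrometry from substrate/product peak AUC; IC50 from dose-response.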

[2] = target: T2, KDM4A (Homo sapiens, UniProt O75164); assay: KDM4A Assay (SAMDI mass spectrometry demethylase assay); format: biochemical; settings: N-terminal His-tagged KDM4A 1-350; class symbols; read-out: 4A IC50
T2 construct: N-terminal His-tagged KDM4A^1-350 was purchased from BPS Biosciences; His (N); purchased BPS Biosciences
T2 sequence (O75164 1-350): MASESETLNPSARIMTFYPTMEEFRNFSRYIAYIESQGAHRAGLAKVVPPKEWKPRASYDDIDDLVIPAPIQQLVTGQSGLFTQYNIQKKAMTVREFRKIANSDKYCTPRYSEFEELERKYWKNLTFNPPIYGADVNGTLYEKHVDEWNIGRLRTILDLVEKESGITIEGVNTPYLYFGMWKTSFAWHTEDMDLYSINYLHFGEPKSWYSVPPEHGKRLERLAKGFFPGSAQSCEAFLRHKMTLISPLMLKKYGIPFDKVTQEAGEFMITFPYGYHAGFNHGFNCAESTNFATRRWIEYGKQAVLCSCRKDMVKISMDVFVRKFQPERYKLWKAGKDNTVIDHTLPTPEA
Experimental: N-terminal His-tagged KDM4A^1-350 was purchased from BPS Biosciences. Peptides were synthesized by BioPeptide and all other reagents were purchased from Sigma-Aldrich at the highest level of purity possible. Assays were performed in a 50 μL volume in 384-well V-bottom polypropylene microplates (Greiner) at 25° C. Optimized 1× assay buffer was 50 mM HEPES (pH=8.0), 100 μM sodium ascorbate, 20 mM NaCl, 10 μM ammonium iron sulfate, 1 mM tris(2-carboxyethyl)phosphine (TCEP), 0.002% Tween-20, and 0.005% BSG. For compound screening, 35 μL of KDM4A^1-350 (final concentration, f.c.=5 nM) was added using a Multidrop Combi and preincubated with 1 μL of test compound (f.c.=10 μM) for 30 minutes and subsequently 15 μL of peptide with the following sequence NH2-ARTKQTAR(Kme2)STGGKAPRKQLA(K-Ahx-Biotin)-amide (f.c.=600 nM) and 2-oxoglutarate (f.c.=5 μM) was added by Multidrop Combi to begin the reaction. Reactions proceeded for 120 minutes and were stopped by the addition of 5 μL of formic acid (f.c.=0.5%) using a Multidrop Combi and then analyzed by SAMDI Tech Inc.
SAMDI Tech analyzed all reactions using self-assembled monoloayer desorption/ionization technology as previously described (Gerard-Levin Z A, Scholle M D, Eisenberg A H, et al.: High-throughput screening of small molecule libraries using SAMDI mass spectrometry. ACS Comb Sci 2011; 13:347-350). Briefly, a 2 μL sample of the stopped demethylase reactions were transferred to a SAMDI array coated with 384 biotin-neutravidin spots using a 384-channel pipet station. The SAMDI arrays were incubated for 1 h in a humidified chamber, followed by washing of the surface with deionized ultra-filtered water (DIUF) and drying under nitrogen. A matrix of 30 mg/ml 2′,4′,6′-Trihydroxyacetophenone monohydrate (THAP) in acetone was applied using a TPP Mosquito 1.2 μL tip by dispensing 50 nL on each of the 384 spots on the array. SAMDI-MS was run using acquisition method ReflectorPositiveUTX. The % conversion of substrate to product was calculated using the AUC of the substrate and product peptide peaks.
An IC50 value was determined by contacting various concentrations of a test compound with one of the KDM4A, KDM4C or KDMSC enzyme constructs and plotting a dose-response curve which associates the amount of inhibition of the enzyme relative to the concentration of the test compound. From the curve, the IC50 value (which represents the concentration of the test compound necessary to inhibit maximal enzymatic activity by 50%) was determined. Additionally, the slope of the linear range of the plotted curve, which indicates the speed with which the curve rises between the minimum and maximum, was calculated.

SMILES	IC50 [1]	IC50 [2]
O=C(O)c1ccncc1Nc1nn(C2CCOCC2)cc1-c1ccccc1 [Compound 72, 3-((4-phenyl-1-(tetrahydro-2H-pyran-4-yl)-1H-pyrazol-3-yl)amino)isonicotinic acid]	1000 to 10000 nM	1000 to 10000 nM
O=C(O)c1ccncc1Nc1c(-c2ccccc2)cnn1-c1ccccc1 [Compound 43, 3-((1,4-Diphenyl-1H-pyrazol-5-yl)amino)isonicotinic acid]	10000 to 100000 nM	10000 to 100000 nM
Cc1nn(CCN(C)C)cc1Nc1cnccc1C(=O)O [Compound 107, 3-(1-(2-(dimethylamino)ethyl)-3-methyl-1H-pyrazol-4-ylamino) isonicotinic acid]	1000 to 10000 nM	100 to 1000 nM
CN(C)CCCn1cc(-c2ccccc2)c(Nc2cnccc2C(=O)O)n1 [Compound 51, 3-((1-(3-(dimethylamino)propyl)-4-phenyl-1H-pyrazol-3-yl)amino) isonicotinic acid]	100 to 1000 nM	1 to 100 nM
Cc1c(Nc2cnccc2C(=O)O)cnn1C1CCNCC1 [Compound 68, 3-((5-methyl-1-(piperidin-4-yl)-1H-pyrazol-4-yl)amino)isonicotinic acid]	100 to 1000 nM	100 to 1000 nM
CN(C)CCn1ncc(-c2ccccc2)c1Nc1cnccc1C(=O)O [Compound 65, 3-((1-(2-(dimethylamino)ethyl)-4-phenyl-1H-pyrazol-5-yl)amino)isonicotinic acid]	1000 to 10000 nM	1000 to 10000 nM
O=C(O)c1ccncc1Nc1c(-c2ccc(F)cc2)cnn1CCN1CCC(F)(F)CC1 [Compound 46, 3-((1-(2-(4,4-difluoropiperidin-1-yl)ethyl)-4-(4-fluorophenyl)-1H-pyrazol-5-yl)amino) isonicotinic acid]	10000 to 100000 nM	1000 to 10000 nM
Cc1cn(-c2ccccc2C#N)nc1Nc1cnccc1C(=O)O [Compound 71, 3-((1-(2-cyanophenyl)-4-methyl-1H-pyrazol-3-yl)amino) isonicotinic acid]	100 to 1000 nM	100 to 1000 nM
COc1ccc(-n2nc(C)c(Nc3cnccc3C(=O)O)c2C)cc1 [Compound 75, 3-((1-(4-methoxyphenyl)-3,5-dimethyl-1H-pyrazol-4-yl)amino)isonicotinic acid]	1000 to 10000 nM	100 to 1000 nM
COC(=O)c1ccncc1Nc1cn(C2CCN(C(C)C)CC2)nc1C [Compound 101, methyl 3-((1-(1-isopropylpiperidin-4-yl)-3-methyl-1H-pyrazol-4-yl)amino)isonicotinate]	10000 to 100000 nM	10000 to 100000 nM
CN1CCN(CCn2cc(-c3ccccc3)c(Nc3cnccc3C(=O)O)n2)CC1 [Compound 34, 3-((1-(2-(4-Methylpiperazin-1-yl)ethyl)-4-phenyl-1H-pyrazol-3-yl)amino)isonicotinic acid]	10000 to 100000 nM	1000 to 10000 nM
N[C@H]1CC[C@H](n2nc(-c3ccccc3)cc2Nc2cnccc2C(=O)O)CC1 [Compound 38, 3-((1-((trans)-4-aminocyclohexyl)-3-phenyl-1H-pyrazol-5-yl)amino)isonicotinic acid]	10000 to 100000 nM	10000 to 100000 nM
O=C(O)c1ccncc1Nc1cc(-c2ccccc2)nn1-c1ccncc1 [Compound 56, 3-((3-phenyl-1-(pyridin-4-yl)-1H-pyrazol-5-yl)amino) isonicotinic acid]	100 to 1000 nM	100 to 1000 nM
CCn1nc(-c2ccccc2)cc1Nc1cnccc1C(=O)O [Compound 36, 3-((1-Ethyl-3-phenyl-1H-pyrazol-5-yl)amino)isonicotinic acid]	100 to 1000 nM	100 to 1000 nM
Cc1n[nH]c(C)c1Nc1cnccc1C(=O)O [Compound 16, 3-((3,5-Dimethyl-1H-pyrazol-4-yl)amino)isonicotinic acid]	10000 to 100000 nM	1000 to 10000 nM
Cn1ncc(-c2cccc(F)c2)c1Nc1cnccc1C(=O)O [Compound 10, 3-((4-(3-Fluorophenyl)-1-methyl-1H-pyrazol-5-yl)amino) isonicotinic acid]	1000 to 10000 nM	1000 to 10000 nM
O=C(O)c1ccncc1Nc1nn(CCN2CCC(F)(F)CC2)cc1C1CCCCC1 [Compound 57, 3-((4-cyclohexyl-1-(2-(4,4-difluoropiperidin-1-yl)ethyl)-1H-pyrazol-3-yl)amino)isonicotinic acid]	100 to 1000 nM	100 to 1000 nM
O=C(O)c1ccncc1Nc1cc(-c2ccccc2)nn1[C@H]1CC[C@@H](O)CC1 [Compound 40, 3-((1-((cis)-4-Hydroxycyclohexyl)-3-phenyl-1H-pyrazol-5-yl)amino)isonicotinic acid]	1000 to 10000 nM	1000 to 10000 nM
Cc1nn(C2CCCNCC2)cc1Nc1cnccc1C(=O)O (single isomer, unassigned) [Compound 114]	100 to 1000 nM	100 to 1000 nM

Next, values leading:

IC50 [1]	IC50 [2]	SMILES
1 to 100 nM	1 to 100 nM	CN(C)CCn1cc(-c2ccccc2)c(Nc2cnccc2C(=O)O)n1 [Compound 64, 3-((1-(2-(dimethylamino)ethyl)-4-phenyl-1H-pyrazol-3-yl)amino)isonicotinic acid]
100 to 1000 nM	100 to 1000 nM	Cc1c(Nc2cnccc2C(=O)O)cnn1C1CCN(C(C)C)CC1 [Compound 104]
100 to 1000 nM	100 to 1000 nM	Cc1nn(C2CCN(C(C)C)CC2)cc1Nc1cnccc1C(=O)O [Compound 102, 3-((1-(1-isopropylpiperidin-4-yl)-3-methyl-1H-pyrazol-4-yl)amino)isonicotinic acid]
100 to 1000 nM	100 to 1000 nM	Cc1cc(Nc2cnccc2C(=O)O)n(-c2ccccc2)n1 [Compound 61, 3-((3-methyl-1-phenyl-1H-pyrazol-5-yl)amino) isonicotinic acid]
1 to 100 nM	1 to 100 nM	Cc1c(Nc2cnccc2C(=O)O)cnn1Cc1ccccc1 [Compound 33, 3-((1-benzyl-5-methyl-1H-pyrazol-4-yl)amino)isonicotinic acid]
100 to 1000 nM	1000 to 10000 nM	O=C(O)c1ccncc1Nc1cc(-c2ccccc2)nn1-c1ccccc1 [Compound 21, 3-((1,3-Diphenyl-1H-pyrazol-5-yl)amino)isonicotinic acid]
100 to 1000 nM	100 to 1000 nM	Cc1nn(C2CCCNCC2)cc1Nc1cnccc1C(=O)O (single isomer, unassigned) [Compound 116]
100 to 1000 nM	100 to 1000 nM	Cc1c(-c2ccccc2)nn(C)c1Nc1cnccc1C(=O)O [Compound 53, 3-((1,4-dimethyl-3-phenyl-1H-pyrazol-5-yl)amino)isonicotinic acid]
1 to 100 nM	1 to 100 nM	CNC(=O)c1cccc(-n2ncc(Nc3cnccc3C(=O)O)c2C)c1 [Compound 59, 3-((5-methyl-1-(3-(methylcarbamoyl)phenyl)-1H-pyrazol-4-yl)amino) isonicotinic acid]
